Measurements from US9598459B2, “Pharmaceutical compositions and methods” (priority 2015, dated 2017).
Converted amounts (≈) assume the structure as drawn. “And” between values parts separate entries of the source, which are not always exact repeats. Equal values may be shown once. Read-outs that look alike come from different tables or passages of the source.

What was measured:
HG23 = details: human
[1] = Cytotoxicity on primary human foreskin fibroblasts; details: human
in vitro [2] = details: African green monkey, Cytotoxicity CC50
in vitro [3] = assay: in vitro
[4] = target: cytosolic progesterone receptors (PR) (Homo sapiens, UniProt P06401); details: Peeters et al., 2008; cited from earlier work
cytosolic progesterone receptors (PR), sequence (P06401 whole entry): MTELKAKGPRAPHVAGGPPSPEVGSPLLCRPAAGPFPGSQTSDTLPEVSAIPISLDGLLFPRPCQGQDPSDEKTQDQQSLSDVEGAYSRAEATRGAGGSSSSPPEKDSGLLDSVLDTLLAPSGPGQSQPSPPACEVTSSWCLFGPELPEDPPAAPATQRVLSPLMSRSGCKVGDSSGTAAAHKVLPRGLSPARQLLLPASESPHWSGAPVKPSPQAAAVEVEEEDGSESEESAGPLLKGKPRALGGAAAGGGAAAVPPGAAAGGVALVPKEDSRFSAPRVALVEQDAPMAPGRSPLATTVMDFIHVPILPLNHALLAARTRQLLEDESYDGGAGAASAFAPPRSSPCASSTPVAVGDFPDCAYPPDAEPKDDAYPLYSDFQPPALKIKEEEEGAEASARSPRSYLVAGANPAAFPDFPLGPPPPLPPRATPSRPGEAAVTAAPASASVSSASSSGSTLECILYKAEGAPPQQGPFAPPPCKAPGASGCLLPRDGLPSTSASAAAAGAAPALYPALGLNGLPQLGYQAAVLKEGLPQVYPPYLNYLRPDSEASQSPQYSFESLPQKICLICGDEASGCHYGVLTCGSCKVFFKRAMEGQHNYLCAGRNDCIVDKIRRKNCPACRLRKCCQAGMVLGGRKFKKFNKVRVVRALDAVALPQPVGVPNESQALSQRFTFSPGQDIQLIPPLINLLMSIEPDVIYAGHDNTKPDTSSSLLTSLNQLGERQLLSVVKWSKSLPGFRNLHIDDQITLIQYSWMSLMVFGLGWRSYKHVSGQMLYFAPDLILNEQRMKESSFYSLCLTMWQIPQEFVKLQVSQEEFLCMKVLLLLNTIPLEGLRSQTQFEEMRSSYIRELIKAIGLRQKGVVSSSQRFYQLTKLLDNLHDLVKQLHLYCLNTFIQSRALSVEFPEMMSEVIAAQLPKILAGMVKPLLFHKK

[5] = Cytotoxicity on RD host cells; format: cell-based; details: human, RD cells
Cytotoxicity on CCRF-CEM = details: human
cytosolic GRs [6] = target: T1, cytosolic GRs (Homo sapiens, UniProt P04150); assay: Binding to cytosolic glucocorticoid receptors
T1 sequence (P04150 1-777): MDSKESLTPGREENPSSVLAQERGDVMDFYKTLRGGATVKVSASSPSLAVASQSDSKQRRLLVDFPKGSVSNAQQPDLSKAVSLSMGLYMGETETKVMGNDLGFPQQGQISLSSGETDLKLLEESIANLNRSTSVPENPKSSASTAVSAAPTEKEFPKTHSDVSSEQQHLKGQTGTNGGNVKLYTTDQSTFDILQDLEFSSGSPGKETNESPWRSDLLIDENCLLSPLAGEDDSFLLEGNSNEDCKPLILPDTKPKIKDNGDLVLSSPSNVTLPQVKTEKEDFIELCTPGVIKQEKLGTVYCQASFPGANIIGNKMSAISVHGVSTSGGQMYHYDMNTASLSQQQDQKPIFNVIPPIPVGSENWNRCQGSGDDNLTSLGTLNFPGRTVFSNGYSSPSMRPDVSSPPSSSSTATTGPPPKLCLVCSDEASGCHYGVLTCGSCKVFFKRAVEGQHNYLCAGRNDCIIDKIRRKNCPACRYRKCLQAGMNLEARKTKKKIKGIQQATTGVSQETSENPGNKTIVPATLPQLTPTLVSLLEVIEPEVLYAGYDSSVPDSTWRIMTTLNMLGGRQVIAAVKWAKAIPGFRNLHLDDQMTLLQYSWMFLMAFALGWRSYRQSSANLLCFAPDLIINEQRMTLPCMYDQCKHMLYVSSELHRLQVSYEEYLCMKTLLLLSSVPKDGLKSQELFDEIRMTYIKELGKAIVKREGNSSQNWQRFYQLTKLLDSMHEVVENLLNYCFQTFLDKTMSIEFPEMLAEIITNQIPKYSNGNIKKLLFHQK

in vitro [7] = details: African green monkey
in vitro [8] = details: dog
MDCK = details: dog
[9] = Phosphatidylcholine binding (thin-layer chromatographic run); details: words
[10] = rats, twice daily 4 mg kg−1 po; cited from earlier work
cytosolic GRs [11] = target: T1, cytosolic GRs; details: Peeters et al., 2008; cited from earlier work
GR = GR (Mus musculus, UniProt P06537); details: cited from earlier work
GR, sequence (P06537 whole entry): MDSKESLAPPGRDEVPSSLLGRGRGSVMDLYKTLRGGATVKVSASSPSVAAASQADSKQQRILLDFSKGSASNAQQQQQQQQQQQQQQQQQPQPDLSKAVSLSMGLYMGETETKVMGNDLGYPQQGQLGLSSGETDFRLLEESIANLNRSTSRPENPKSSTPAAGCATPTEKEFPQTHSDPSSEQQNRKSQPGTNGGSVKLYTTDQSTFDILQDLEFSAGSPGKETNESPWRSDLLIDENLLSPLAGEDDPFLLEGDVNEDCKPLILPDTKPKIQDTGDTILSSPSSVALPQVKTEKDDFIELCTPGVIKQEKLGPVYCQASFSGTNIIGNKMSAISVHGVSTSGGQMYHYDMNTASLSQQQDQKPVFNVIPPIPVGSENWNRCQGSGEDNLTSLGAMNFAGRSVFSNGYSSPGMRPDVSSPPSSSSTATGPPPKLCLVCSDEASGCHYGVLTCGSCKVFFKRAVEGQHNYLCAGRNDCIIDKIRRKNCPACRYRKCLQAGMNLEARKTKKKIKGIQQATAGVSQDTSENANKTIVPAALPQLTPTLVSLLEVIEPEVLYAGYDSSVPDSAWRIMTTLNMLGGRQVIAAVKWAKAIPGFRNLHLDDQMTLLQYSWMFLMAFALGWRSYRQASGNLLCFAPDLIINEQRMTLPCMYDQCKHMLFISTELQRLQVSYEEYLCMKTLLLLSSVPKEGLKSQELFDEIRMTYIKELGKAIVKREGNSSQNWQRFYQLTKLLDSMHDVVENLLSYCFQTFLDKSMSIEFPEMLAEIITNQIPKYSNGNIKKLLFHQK

HIV-1 LAV = assay: Inhibition of inducible HIV-1 LAV replication in OM-10.1 (RT values); format: cell-based, human immunodeficiency virus type 1; details: for RT Values: SAMPLE 1-3, MEAN
RD = assay: Cytotoxicity on RD host cells; format: cell-based
CCRF-CEM = assay: Cytotoxicity on CCRF-CEM; details: CCRF-CEM
[12] = tested on: Japanese encepahalitis virus SA-14; assay: Japanese encephalitis virus antiviral screen in Vero 76; format: cell-based; details: JEV SA-14, Vero 76

CC#C[C@]1(O)CC[C@H]2[C@@H]3CCC4=CC(=O)CCC4=C3[C@@H](c3ccc4c(c3)OCO4)C[C@@]21C [PT150, (11β,17β)-11-(1,3-benzodioxol-5-yl)-17-hydroxy-17-(1-propynyl)-estra-4,9-dien-3-one]
CC50 (HG23): 8.7 µM | CC50 ([1]; primary HFF-1 human foreskin fibroblasts, CC50): > 150 µM | CC50 ([1]; primary HFF-1 human foreskin fibroblasts, CC50, Cytotoxicity control, Primary HFF-1, CellTiter-Glo): > 150 µM | CC50 ([1]; primary human foreskin fibroblasts (HFF / HFF-1), CC50, HFF / HFF-1 primary cells): > 150 µM | CC50 ([1]; primary human foreskin fibroblasts (HFF-1), CC50, Herpes simplex virus type 1 screen, Primary HFF-1, CellTiter-Glo): > 150 µM | CC50 (in vitro [2]): 44.3 µM | CC50 (in vitro [3]; CC50): > 100 µM | CC50 (in vitro [3]; human, CC50): 7.4 µM and 3.3 µg/mL | CC50 (in vitro [3]; human, Cytotoxicity 50% CC50): 7.4 µM | value for the cytosolic progesterone receptors (PR) [4]: 6.4% | CC50 ([5]; Cytotoxicity 50% CC50, Enterovirus D68 screen, Tables 5-6): 10.2 µM | CC50 ([5]; Enterovirus 68 screen, Table 4, read-out: CC50): 10.2 µM | CC50 ([5]; Enterovirus D68 screen, Neutral red, read-out: CC50): 2.6 µg/mL | CC50 ([5]; Enterovirus D68 screen, Visual, read-out: CC50): 3.2 µg/mL | CC50 (Cytotoxicity on CCRF-CEM; CCRF-CEM cells (T-lymphoblastic acute T cell leukemia), Cytotoxicity CC50, CCRF-CEM): 15.4 µM | CC50 (Cytotoxicity on CCRF-CEM; CCRF-CEM cells, CC50, Cytotoxicity control, CCRF-CEM, CellTiter MTS): 15.4 µM | selectivity ratio (GR/PR) (cytosolic GRs [6]): 57 | CC50 (in vitro [7]): 10.9 µM | CC50 (in vitro [8]; CC50): 29 µg/mL | CC50 (in vitro [8]; Cytotoxicity 50% CC50): 17 µM | CC50 (MDCK): 37 µg/mL (≈ 85.9 µM) | binding to PC [9]: not to PC | embryos lost [10]: ~100% | bound to cytosolic GRs, value (cytosolic GRs [11]): 365% | block of corticosterone-induced GR translocation (GR): able to block corticosterone-induced GR translocation

CC#CC1(O)CCC2C3CCC4=CC(=NNC(N)=S)CCC4=C3C(c3ccc4c(c3)OCO4)CC21C.CC#CC1(O)CCC2C3CCC4=CC(=O)CCC4=C3C(c3ccc4c(c3)OCO4)CC21C.CC(C)=O.CCO.O (stereo not drawn) [PT155, ⅓ (11β,17β)-17-Hydroxy-11-[3,4-(methylenedioxy)phenyl]-17-(1-propyn-1-yl)estra-4,9-dien-3-one (ORG34517)×(2EZ)-2-{(11β,17β)-17-hydroxy-11-[3,4-(methylenedioxy)phenyl]-17-(1-propyn-1-yl)estra-4,9-dien-3-ylidene}hydrazinecarbothioamide [71.8% (E), 28.2% (Z)] hemihydrate×¾% acetone× ⅛ ethanol]
% VC (HIV-1 LAV; 0.01 μM): 100.0% | RT Values (HIV-1 LAV; 0.01 μM): 32320 cpm and 29982 cpm and 29144 cpm | % VC (HIV-1 LAV; 0.03 μM): 107.7% | RT Values (HIV-1 LAV; 0.03 μM): 33018 cpm and 33056 cpm and 32387 cpm | % VC (HIV-1 LAV; 0.10 μM): 99.8% | RT Values (HIV-1 LAV; 0.10 μM): 29801 cpm and 29663 cpm and 31726 cpm | % VC (HIV-1 LAV; 1.00 μM): 82.2% | RT Values (HIV-1 LAV; 1.00 μM): 23474 cpm and 26693 cpm and 24955 cpm | % VC (HIV-1 LAV; 3.16 μM): 57.9% | RT Values (HIV-1 LAV; 3.16 μM): 16156 cpm and 21122 cpm and 15662 cpm | % VC (HIV-1 LAV; 10.0 μM): 28.9% | RT Values (HIV-1 LAV; 10.0 μM): 8592 cpm and 7827 cpm and 10011 cpm | % VC (HIV-1 LAV; 31.6 μM): 15.8% | RT Values (HIV-1 LAV; 31.6 μM): 4254 cpm and 4765 cpm and 5466 cpm | % VC (HIV-1 LAV; 100 μM): 0.8% | IC50 (HIV-1 LAV; OM-10.1): 4.33 µM | IC90 (HIV-1 LAV; OM-10.1): 49.4 µM | IC 95% (HIV-1 LAV; OM-10.1): 72.4 µM | EC50 (HIV-1 LAV; OM-10.1, Table 7, read-out: EC50): 4.33 µM | EC90 (HIV-1 LAV; OM-10.1, Table 7, read-out: EC90): 49.4 µM | CC50 (PBMC): 82.6 µM | CC50 (HuH-7): 39.7 µM | CC50 (RD; Enterovirus D68 screen, Neutral red): 8.1 µg/mL | CC50 (RD; Enterovirus D68 screen, Visual): 3.2 µg/mL | CC50 (RD; read-out: Cytotoxicity 50% CC50, Enterovirus D68 screen, Tables 5-6): 5.8 µM | CC50 (MA-104): 17 µM | CC50 (CCRF-CEM; Cytotoxicity control, CellTiter MTS): 7.1 µM | CC50 (CCRF-CEM; read-out: Cytotoxicity CC50): 7.1 µM | EC50 ([12]; Neutral Red (Cytopathic effect/Toxicity)): 2.6 µg/mL | EC50 ([12]; Visual (Cytopathic effect/Toxicity), unit from Conc. Range): 2.6 µg/mL | cellular growth at fixed 100 μM concentration (Vero): (96.1) % | binding to PC [9]: not to PC | CC50 (Vero 76): 45.4 µM
